Results published in patent US20130078287A1 (Horizon Pharma USA, Inc., priority 2010, published 2013).
Marks after values point to notes of the source that are not given here.

How the values were obtained:
[1] = tested on: subjects expected to require daily NSAID therapy; assay: REDUCE-1 study: endoscopically diagnosed gastric, duodenal and UGI ulcers; type: in vivo, human; conditions: for Proportion of subjects with Duodenal Ulcer / Proportion of subjects with Gastric Ulcer / Proportion of subjects with UGI Ulcer / UGI Ulcer: Subjects with Low-dose Aspirin Use / UGI Ulcer: Subjects with Prior Ulcer: REDUCE-1, 24 weeks
Description: (§1) Subjects were deemed a treatment failure and terminated early from the study in the event they developed an endoscopically diagnosed UGI ulcer. Subjects who terminated early for reasons other than development of an endoscopically diagnosed UGI ulcer were to undergo an endoscopic examination at a termination visit that was conducted as soon as possible after administration of their final dose of study drug. The predefined population for primary analyses of ulcers was all subjects with ≧1 follow-up study endoscopy.

[2] = tested on: subjects expected to require daily NSAID therapy; assay: REDUCE-2 study: endoscopically diagnosed UGI, gastric and duodenal ulcers; type: in vivo, human
Description: as §1

[3] = tested on: subjects expected to require daily NSAID therapy; assay: Pooled REDUCE-1 and REDUCE-2: UGI ulcers by subgroup; type: in vivo, human; conditions: for Subjects who developed an upper gastrointestinal ulcer: clinical studies of HZT-501; for Proportion of subjects who developed at least one UGI ulcer: pooled, Week 24 life table
Source text: In addition to examining potential risk factors together in a statistical model, the effect of treatment was examined in the combined studies overall and within various subgroups of interest. These subgroups included age category (<65, […]), prior history of UGI ulcer (yes, no), use of low-dose aspirin (LDA) (yes, no), and gender. […] Treatment was the only factor included in the model.

[4] = tested on: subjects who completed REDUCE-1 or REDUCE-2 without ulcer; conditions: human, in vivo, 28 weeks
[5] = tested on: subjects expected to require daily NSAID therapy; assay: REDUCE-1 study: adverse events
Source text: (§2) Randomization was stratified based on aspirin/anticoagulant therapy and prior ulcer history.
Secondary endpoints were UGI ulcers, duodenal ulcers, and serious GI complications

[6] = tested on: subjects expected to require daily NSAID therapy; assay: REDUCE-2 study: adverse events
Source text: as §2
Secondary endpoints were gastric ulcers, duodenal ulcers, and serious GI complications.

[7] = crude proportion, listed as ibuprofen
[8] = life table estimate, listed as ibuprofen
[9] = REDUCE-1, early drop-outs imputed as treatment failures
[10] = REDUCE-2, 24 weeks, crude proportion
[11] = REDUCE-2, 24 weeks, crude proportion, listed as ibuprofen
[12] = REDUCE-2, 24 weeks, life table estimate
[13] = REDUCE-2, 24 weeks, life table estimate, listed as ibuprofen
[14] = REDUCE-2, early terminations imputed as having an ulcer

CC(C)Cc1ccc(C(C)C(=O)O)cc1 (centres unmarked) [Ibuprofen, 2-(p-isobutylphenyl)propionic acid]
Proportion of subjects with Duodenal Ulcer ([1]; crude proportion): 14/262 (5.3%); | Proportion of subjects with Gastric Ulcer ([1]; crude proportion): 52/262 (19.8%); | Proportion of subjects with UGI Ulcer ([1]; crude proportion): 61/262 (23.3%)*; | UGI Ulcer: Subjects with Low-dose Aspirin Use ([1]; crude proportion): 10/32 (31.3%); | UGI Ulcer: Subjects with Prior Ulcer ([1]; crude proportion): 4/15 (26.7%); | Proportion of subjects with Duodenal Ulcer [1, 7]: 5.3% | Proportion of subjects with Gastric Ulcer [1, 7]: 19.8% | Proportion of subjects with UGI Ulcer [1, 7]: 23.3% | Proportion of subjects with Duodenal Ulcer ([1]; life table estimate): 7.1% | Proportion of subjects with Gastric Ulcer ([1]; life table estimate): 25.3% | Proportion of subjects with UGI Ulcer ([1]; life table estimate): 29.1%* | UGI Ulcer: Subjects with Low-dose Aspirin Use ([1]; life table estimate): 33.3% | UGI Ulcer: Subjects with Prior Ulcer ([1]; life table estimate): 27.3% | Proportion of subjects with Duodenal Ulcer [1, 8]: 7.1% | Proportion of subjects with Gastric Ulcer [1, 8]: 25.3% | Proportion of subjects with UGI Ulcer [1, 8]: 29.1% | Crude ulcer rate, UGI ulcer [1, 9]: 30.2% | Crude ulcer rate, gastric ulcers [1, 9]: 26.7% | NSAID associated serious GI complications, % of subjects ([1]; REDUCE-1, secondary efficacy endpoint): none | Proportion of subjects with Duodenal Ulcer [2, 10]: 9/190 (4.7%); | Proportion of subjects with Gastric Ulcer [2, 10]: 34/190 (17.9%); | Proportion of subjects with UGI Ulcer [2, 10]: 38/190 (20%); | UGI Ulcer: Subjects with Low-dose Aspirin Use [2, 10]: 6/23 (26.1%); | UGI Ulcer: Subjects with Prior Ulcer [2, 10]: 2/11 (18.2%); | Proportion of subjects with Duodenal Ulcer [2, 11]: 4.7% | Proportion of subjects with Gastric Ulcer [2, 11]: 17.9% | Proportion of subjects with UGI Ulcer [2, 11]: 20.0% | Proportion of subjects with Duodenal Ulcer [2, 12]: 6.6% | Proportion of subjects with Gastric Ulcer [2, 12]: 19.7% | Proportion of subjects with UGI Ulcer [2, 12]: 22.6% | UGI Ulcer: Subjects with Prior Ulcer [2, 12]: 20.0% | Proportion of subjects with Duodenal Ulcer [2, 13]: 6.6% | Proportion of subjects with Gastric Ulcer [2, 13]: 19.7% | Proportion of subjects with UGI Ulcer [2, 13]: 22.6% | Crude ulcer rate, UGI ulcers ([2]; REDUCE-2, early drop-outs imputed as treatment failures): 25.3% | Crude ulcer rate, duodenal ulcer [2, 14]: 10.1% | Crude ulcer rate, gastric ulcer [2, 14]: 23.2% | Subjects who developed an upper gastrointestinal ulcer ([3]; subjects who used low-dose aspirin): 35% | Subjects who developed an upper gastrointestinal ulcer ([3]; subjects with a prior history of gastrointestinal ulcer): 24% | Proportion of subjects who developed at least one UGI ulcer ([3]; Age <65 years): 26.3% | Proportion of subjects who developed at least one UGI ulcer ([3]; Age ≧65 years): 26.6% | Proportion of subjects who developed at least one UGI ulcer ([3]; Age ≧65 years, listed as ibuprofen): 27% | Proportion of subjects who developed at least one UGI ulcer ([3]; Female): 28.3% | Proportion of subjects who developed at least one UGI ulcer ([3]; Race Other): 13.3% | Viral infection [4]: 2.1 (1) % (n) | AEs Leading to Discontinuation, Incidence (%) [5]: 7.7% | AEs by Relatedness: Possibly Related, Incidence (%) [5]: 23.1% | AEs by Relatedness: Probably Not Related, Incidence (%) [5]: 38.1% | AEs by Severity: Life Threatening, Incidence (%) [5]: 0.7% | AEs by Severity: Moderate, Incidence (%) [5]: 27.1% | AEs by Severity: Severe, Incidence (%) [5]: 7.0% | Abdominal Pain Upper, Incidence (%) [5]: 4.0% | Any GI Event, Incidence (%) [5]: 27.4* % | Cardiac Disorders, Incidence (%) [5]: 1.3% | Constipation, Incidence (%) [5]: 4.3% | Deaths, Incidence % [5]: 1/0.1% | Diarrhea, Incidence (%) [5]: 4.3% | Dyspepsia, Incidence (%) [5]: 7.7% | General Disorders/Administrative Site Conditions, Incidence (%) [5]: 7.7% | Hepatobiliary Disorders, Incidence (%) [5]: 0.0% | Hypertension, Incidence (%) [5]: 2.3% | Injury, Poisoning, Procedural Complications, Incidence (%) [5]: 6.0% | Investigations, Incidence (%) [5]: 5.0% | Musculoskeletal/connective Tissue Disorders, Incidence (%) [5]: 8.0% | Nausea, Incidence (%) [5]: 4.3% | Nervous System Disorders, Incidence (%) [5]: 7.0% | Renal and Urinary Disorders, Incidence (%) [5]: 1.0% | Respiratory, Thoracic and Mediastinal Disorders, Incidence (%) [5]: 8.7% | SAEs leading to discontinuation, Incidence % [5]: 2/0.7% | Subjects with at least one AE, Incidence (%) [5]: 61.2% | Total SAEs, Incidence % [5]: 13/4.3% | Withdrawals due to GI, Incidence (%) [5]: 5.0% | AEs Leading to Discontinuation, Incidence (%) [6]: 7.1% | AEs by Severity: Life Threatening, Incidence (%) [6]: 0.0% | AEs by Severity: Moderate, Incidence (%) [6]: 21.7% | AEs by Severity: Severe, Incidence (%) [6]: 6.6% | Abdominal Pain Upper, Incidence (%) [6]: 1.9% | Any GI Event, Incidence (%) [6]: 29.7* % | Cardiac Disorders, Incidence (%) [6]: 0.5% | Constipation, Incidence (%) [6]: 3.8% | Deaths, Incidence % [6]: 0/0.0% | Diarrhea, Incidence (%) [6]: 4.2% | Dyspepsia, Incidence (%) [6]: 8.5** % | General Disorders/Administrative Site Conditions, Incidence (%) [6]: 3.8% | Hepatobiliary Disorders, Incidence (%) [6]: 0.0% | Hypertension, Incidence (%) [6]: 1.9% | Infections/Infestations, Incidence (%) [6]: 19.3% | Injury, Poisoning, Procedural Complications, Incidence (%) [6]: 3.8% | Investigations, Incidence (%) [6]: 2.4% | Musculoskeletal/connective Tissue Disorders, Incidence (%) [6]: 5.2% | Nausea, Incidence (%) [6]: 5.2% | Nervous System Disorders, Incidence (%) [6]: 4.7% | Renal and Urinary Disorders, Incidence (%) [6]: 0.0% | Respiratory, Thoracic and Mediastinal Disorders, Incidence (%) [6]: 4.7% | SAEs leading to discontinuation, Incidence % [6]: 2/0.9% | Subjects with at least one AE, Incidence (%) [6]: 54.7% | Total SAEs, Incidence % [6]: 4/1.9% | Withdrawals due to GI, Incidence (%) [6]: 5.2*** %
